These results are taken from patent publication US20220073536A1 (Rigel Pharmaceuticals, Inc., priority 2003, published 2022).

For data set [1], the system named is cultured human mast cells (CHMC). The experiment in a line: CHMC low cell density IgE activation: tryptase assay. The class given is cell-based. As to conditions: Homo sapiens, Mast cell, IgE activation. The procedure, abridged:
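Tryptase release, fluorogenic substrate, 30 min RT. Prior anti-IgE stimulation of CHMC, 30 min, 37 °C, after 1 hr preincubation at 1000–1500 cells/well in MT; unstimulated wells received MT.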

The test system of another data set is C57BL/6 mice. The experiment in a line: Mouse cutaneous Reverse Passive Arthus (RPA) reaction, edema. The class given is in vivo. The text has this:
Immune complex (IC)-mediated acute inflammatory tissue injury is implicated in a variety of human autoimmune diseases, including vasculitis syndrome, sick serum syndrome, systemic lupus erythematosus (SLE), rheumatoid arthritis, Goodpasture's syndrome, and glomerulonephritis. The classical experimental model for IC-mediated tissue injury is the reverse passive Arthus reaction. The RPA reaction model is a convenient in vivo method to study localized inflammation, induced by ICs, without systemic effects. Intradermal injection of antibodies (Abs) specific to chicken egg albumin (rabbit anti-OVA IgG), followed by intravenous (IV) injection of antigens (Ags), specifically chicken egg albumin (ovalbumin, OVA), causes perivascular deposition of ICs and a rapid inflammatory response characterized by edema, neutrophil infiltration and hemorrhage at the injection sites. Aspects of the mouse RPA reaction model resemble the inflammatory response of patients with rheumatoid arthritis, SLE and glomerulonephritis.
(§1) In this model system, test compounds are administered at several timepoints prior to administration of Abs and Ags. A solution of rabbit anti-OVA IgG ([…] in 25 μl/mouse) is injected intradermally, and immediately following is an intravenous injection of chicken egg albumin (20 mg/kg of body weight) in a solution containing 1% Evans blue dye. The degree of edema and hemorrhage is measured in the dorsal skin of C57BL/6 mice using the Evan's Blue dye as an indicator of local tissue damage. Purified polyclonal rabbit IgG is used as a control.
Pretreatment time, in which the test compounds are administered prior to Ab/Ag challenge, depends on the pharmacokinetic (PK) properties of each individual compound. Four hours after induction of Arthus reaction, mice are euthanized, and tissues are harvested for assessment of edema. This model system allows us to rapidly screen the in vivo activity of many inhibitors.
(§2) All compounds tested were administered by the oral route.

For data set [2], the system named is cultured human mast cells (CHMC). In words: CHMC low cell density ionomycin activation: tryptase assay. The class given is cell-based. Particulars: Homo sapiens, Mast cell, 3 pt, read-out: LD Tryptase, CHMC, Iono, 3 pt.
A short description of data set [3]: Plasma concentration in the mouse RPA reaction study. The class given is in vivo. The protocol:
as §1
Pretreatment time, in which the test compounds are administered prior to Ab/Ag challenge, depends on the pharmacokinetic (PK) properties of each individual compound. Four hours after induction of Arthus reaction, mice are euthanized, and tissues are harvested for assessment of edema.
as §2

Setting [4] is: low cell density, 3 pt, read-out: LD Tryptase, CHMC, IgE, 3 pt.
[5] abbreviates: low cell density, 8 pt, read-out: LD Tryptase, CHMC, IgE, 8 pt.
Where [6] appears, read: oral, dosage 0.5, pretreatment 5.
Setting [7] is: oral, printed in dosage position 0.5, in pretreatment position 15.
The mark [8] stands for this setting: 0.1 mg/kg oral, pretreatment time 0.5 hrs.
Where [9] appears, read: 0.5 mg/kg oral, pretreatment time 0.5 hrs.
Where [10] appears, read: 1 mg/kg oral, pretreatment time 0.5 hrs.
The mark [11] stands for this setting: 5 mg/kg oral, pretreatment time 0.5 hrs.

Several values for one entry are separate records, joined by “and”; a condition that tells them apart may be missing. Equal values may be shown once. Some results are limits rather than exact numbers.

Regarding `COc1c(C)cc(Nc2ncc(F)c(Nc3ccc4c(c3)NC(=O)C(C)(C)O4)n2)cc1Cl.Cc1ccc(S(=O)(=O)O)cc1` [Compound 994, N2-(3-Chloro-4-methoxy-5-methylphenyl)-N4-(2,2-dimethyl-3-oxo-4H-benz[1,4]oxazin-6-yl)-5-fluoro-2,4-pyrimidinediamine p-Toluenesulfonic Acid Salt], the IC50 is 0.047 µM in data set [1] (CHMC, read-out: in vitro Potency (CHMC IgE)); under 10 µM in data set [1] (setting [4]); under 10 µM in data set [1] (setting [5]); under 10 µM in data set [2] (low cell density). Besides, in the data set with C57BL/6 mice (100 mg/kg oral, 90 minutes prior to Ab/Ag challenge (pretreatment cell of table empty), C57BL/6 mice), the “% inhibition to vehicle control Edema Size ± SEM” value is 75% and 75.0 ± 6.2%.
Take `Cn1c(N2CCOCC2)nc2cc(Nc3ncc(F)c(Nc4ccc5c(c4)NC(=O)C(C)(C)O5)n3)ccc21` [Compound 944, N4-(2,2-Dimethyl-3-oxo-4H-benz[1,4]oxazin-6-yl)-5-fluoro-N2-[1-methyl-2-(4-morpholino)benzimidazol-5-yl]-2,4-pyrimidinediamine]: the IC50 in data set [1] (setting [4]) and in data set [1] (setting [5]) was under 10 µM each time. Moreover, the “% inhibition to vehicle control Edema Size ± SEM” value is on record as 39.3 ± 13.8% with C57BL/6 mice (2 mg/kg oral, pretreatment time 1 hr); 48.4 ± 12.0% in the data set on C57BL/6 mice (5 mg/kg oral, pretreatment time 1 hr); 56.1 ± 9.2% with C57BL/6 mice (15 mg/kg oral, pretreatment time 1 hr); −16.0 ± 17.3% with C57BL/6 mice (setting [6]); 8.3 ± 13.4% with C57BL/6 mice (setting [7]). The “Exposure = Pretreatment Time + 4 hours Plasma Concentration ± SEM” value in data set [3] (setting [6]) amounted to 3.4 ± 9.1 ng/mL; in data set [3] (setting [7]), 85.1 ± 161.9 ng/mL. In addition, the “Satellite: At time of challenge Plasma Concentration ± SEM” value in data set [3] (setting [6]) turned out to be 22.1 ± 52.4 ng/mL; in data set [3] (setting [7]) it was 1074.0 ± 492.3 ng/mL.
On to `Cc1nc2ccc(Nc3ncc(F)c(Nc4ccc5c(c4)NC(=O)C(C)(C)O5)n3)cc2[nH]1` [Compound 810, N4-(2,2-Dimethyl-3-oxo-4H-benz[1,4]oxazin-6-yl)-5-fluoro-N2-(2-methyl-3H-benzimidazol-5-yl)-2,4-pyrimidinediamine], for which the IC50 in data set [1] (low cell density CHMC, tryptase release, 3 pt, read-out: LD Tryptase, CHMC, IgE, 3 pt) was under 10 µM; in data set [1] (low cell density CHMC, tryptase release, 8 pt, read-out: LD Tryptase, CHMC, IgE, 8 pt), under 10 µM; in data set [2] (low cell density CHMC, tryptase release), over 10 µM. In addition, the “% inhibition to vehicle control Edema Size ± SEM” value with C57BL/6 mice (setting [8]) is 69.5 ± 19.6%; in the data set on C57BL/6 mice (setting [9]), 60.9 ± 9.6%; with C57BL/6 mice (setting [10]) it was 81.3% and 81.3 ± 8.4%; in the data set with C57BL/6 mice (setting [11]), 92.1 ± 3.1%.
As for `COc1cc(Nc2ncc(F)c(Nc3ccc4c(n3)NC(=O)C(C)(C)O4)n2)cc(OC)c1OC` [Compound 1007, N4-(2,2-Dimethyl-3-oxo-4H-5-pyrid[1,4]oxazin-6-yl)-5-fluoro-N2-(3,4,5-trimethoxyphenyl)-2,4-pyrimidinediamine], the “% inhibition to vehicle control Edema Size ± SEM” value was 64.3% and 64.3 ± 11.2% in the data set with C57BL/6 mice (setting [8]); 78.7% and 78.7 ± 6.3% in the data set with C57BL/6 mice (setting [9]); 89.4 ± 2.2% and 98.1 ± 0.8% in the data set on C57BL/6 mice (setting [10]); 86.3 ± 7.9% with C57BL/6 mice (3 mg/kg oral, pretreatment time 0.5 hrs); 99.8% and 99.8 ± 0.2% in the data set with C57BL/6 mice (setting [11]); 97.8 ± 1.1% with C57BL/6 mice (10 mg/kg oral, pretreatment time 0.5 hrs). The “% inhibition to vehicle control Edema Size ± SEM” value with C57BL/6 mice (30 mg/kg oral, pretreatment time 0.5 hrs) came to 88.2 ± 5.7%. The “Exposure = Pretreatment Time + 4 hours Plasma Concentration ± SEM” value in data set [3] (setting [8]) and in data set [3] (setting [9]) was “BLQ” each time.
